Data reported in patent publication US20230146395A1, “Substituted Pyrimidines and Uses Thereof” (Verge Analytics, Inc., priority 2020, published 2023).

Molecular target: T1, Full length human recombinant PIKFYVE (Homo sapiens, UniProt Q9Y2I7)
T1 construct: Full length human recombinant PIKFYVE; purchased Carna Biosciences (Kobe, Japan); host or cells: baculovirus expression system
Test: Inhibition of PIKfyve (microfluidic electrophoresis kinase assay, PI3P/PS substrate)
Type: biochemical
Details: 12 concentrations
Summary of the method: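 GST-tagged full-length human PIKFYVE (baculovirus; 2 nM) with fluorescent PI3P/PS (1 μM PI3P) and […] in pH 7.5 HEPES with Mg2+/Mn2+, 1% DMSO, 3 h at room temperature. PI(3,5)P product/substrate ratio read by microfluidic electrophoresis; 12-point % inhibition versus no-enzyme and DMSO controls.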

T1 sequence (Q9Y2I7 whole entry): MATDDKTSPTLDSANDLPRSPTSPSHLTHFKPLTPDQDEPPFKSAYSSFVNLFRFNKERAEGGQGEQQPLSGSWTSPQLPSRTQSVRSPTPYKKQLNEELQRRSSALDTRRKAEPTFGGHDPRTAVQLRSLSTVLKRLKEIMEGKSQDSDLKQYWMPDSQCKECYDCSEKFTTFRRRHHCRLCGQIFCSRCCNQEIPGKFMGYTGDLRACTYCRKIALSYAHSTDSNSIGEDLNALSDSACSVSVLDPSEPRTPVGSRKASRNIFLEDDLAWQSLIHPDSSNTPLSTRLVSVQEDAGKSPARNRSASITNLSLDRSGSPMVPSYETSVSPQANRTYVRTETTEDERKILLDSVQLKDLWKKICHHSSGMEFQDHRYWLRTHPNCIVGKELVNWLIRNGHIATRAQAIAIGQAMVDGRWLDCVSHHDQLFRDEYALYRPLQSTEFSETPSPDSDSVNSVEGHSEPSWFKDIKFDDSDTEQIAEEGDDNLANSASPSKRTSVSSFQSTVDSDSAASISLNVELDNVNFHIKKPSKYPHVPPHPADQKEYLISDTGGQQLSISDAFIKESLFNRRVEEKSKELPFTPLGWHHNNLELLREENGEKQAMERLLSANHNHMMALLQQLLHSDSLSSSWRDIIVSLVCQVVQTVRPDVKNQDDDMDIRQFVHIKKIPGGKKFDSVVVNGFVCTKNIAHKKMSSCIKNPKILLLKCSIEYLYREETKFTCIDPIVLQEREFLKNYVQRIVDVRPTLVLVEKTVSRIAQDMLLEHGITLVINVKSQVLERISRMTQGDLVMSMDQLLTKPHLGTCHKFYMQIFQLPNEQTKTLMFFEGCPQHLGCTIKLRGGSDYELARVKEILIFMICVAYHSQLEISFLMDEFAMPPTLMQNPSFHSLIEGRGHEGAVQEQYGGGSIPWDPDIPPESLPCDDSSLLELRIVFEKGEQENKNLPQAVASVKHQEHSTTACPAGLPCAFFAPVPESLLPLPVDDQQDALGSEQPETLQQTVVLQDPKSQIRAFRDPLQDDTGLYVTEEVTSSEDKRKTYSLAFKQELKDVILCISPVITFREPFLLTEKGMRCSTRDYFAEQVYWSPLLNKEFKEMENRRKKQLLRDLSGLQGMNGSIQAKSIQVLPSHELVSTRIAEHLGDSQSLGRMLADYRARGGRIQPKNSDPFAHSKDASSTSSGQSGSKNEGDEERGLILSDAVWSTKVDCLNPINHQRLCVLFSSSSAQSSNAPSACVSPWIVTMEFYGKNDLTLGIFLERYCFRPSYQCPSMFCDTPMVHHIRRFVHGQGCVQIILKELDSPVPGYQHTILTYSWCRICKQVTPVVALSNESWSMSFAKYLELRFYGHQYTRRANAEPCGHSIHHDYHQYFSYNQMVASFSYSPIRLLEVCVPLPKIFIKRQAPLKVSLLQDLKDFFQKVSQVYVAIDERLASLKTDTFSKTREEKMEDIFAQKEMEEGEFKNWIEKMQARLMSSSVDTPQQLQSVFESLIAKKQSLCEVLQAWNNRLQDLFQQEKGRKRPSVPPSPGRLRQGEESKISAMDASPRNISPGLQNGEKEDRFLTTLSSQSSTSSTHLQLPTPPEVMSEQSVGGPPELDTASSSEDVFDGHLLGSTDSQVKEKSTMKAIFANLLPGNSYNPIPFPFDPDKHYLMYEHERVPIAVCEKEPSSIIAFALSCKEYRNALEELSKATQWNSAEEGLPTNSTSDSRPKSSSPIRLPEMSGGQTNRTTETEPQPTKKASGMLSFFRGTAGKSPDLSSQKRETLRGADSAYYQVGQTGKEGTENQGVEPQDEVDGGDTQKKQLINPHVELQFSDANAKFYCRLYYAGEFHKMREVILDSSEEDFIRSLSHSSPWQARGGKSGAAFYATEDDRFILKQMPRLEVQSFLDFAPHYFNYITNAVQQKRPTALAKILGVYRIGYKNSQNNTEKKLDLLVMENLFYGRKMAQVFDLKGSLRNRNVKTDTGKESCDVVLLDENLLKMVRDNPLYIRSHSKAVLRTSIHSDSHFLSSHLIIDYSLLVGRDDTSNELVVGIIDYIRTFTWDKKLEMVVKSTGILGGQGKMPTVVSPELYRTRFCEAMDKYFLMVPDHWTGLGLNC

SMILES | IC50
Cc1cccc(-c2ccn(-c3nc(N4CCOCC4)c4oc(-c5cc(C)n(CCN(C)C)n5)cc4n3)n2)c1 [Compound 178, N,N-dimethyl-2-[5-methyl-3-[4-morpholino-2-[3-(m-tolyl)pyrazol-1-yl]furo[3,2-d]pyrimidin-6-yl]pyrazol-1-yl]ethanamine] | 0.9 nM
Cc1c(-c2ccccn2)oc2c(N3CCOCC3)nc(-n3ccc(-c4ccccc4)n3)nc12 [Compound 179, 7-methyl-4-morpholino-2-(3-phenyl-1H-pyrazol-1-yl)-6-(pyridin-2-yl)furo[3,2-d]pyrimidine] | ≥ 10000 nM
Cc1c(-c2cccnc2)oc2c(N3CCOCC3)nc(-n3ccc(-c4ccccc4)n3)nc12 [Compound 180, 7-methyl-4-morpholino-2-(3-phenylpyrazol-1-yl)-6-(3-pyridyl)furo[3,2-d]pyrimidine] | 55.6 nM
Cc1c(-c2ccncc2)oc2c(N3CCOCC3)nc(-n3ccc(-c4ccccc4)n3)nc12 [Compound 181, 7-methyl-4-morpholino-2-(3-phenylpyrazol-1-yl)-6-(4-pyridyl)furo[3,2-d]pyrimidine] | 59.4 nM
Cc1c(C(=O)NC2CC2)oc2c(N3CCOCC3)nc(-n3ccc(-c4ccccc4)n3)nc12 [Compound 184, N-cyclopropyl-7-methyl-4-morpholino-2-(3-phenylpyrazol-1-yl)furo[3,2-d]pyrimidine-6-carboxamide] | 1430 nM
Brc1cccc(-c2ccn(-c3nc(N4CCOCC4)c4oc(-c5ccccn5)cc4n3)n2)c1 [Compound 186, 2-[3-(3-bromophenyl)pyrazol-1-yl]-4-morpholino-6-(2-pyridyl)furo[3,2-d]pyrimidine] | 6 nM
Cc1cccc(-c2ccn(-c3nc(N4CCOCC4)c4oc(-c5ccccn5)cc4n3)n2)n1 [Compound 187, 2-[3-(6-methyl-2-pyridyl)pyrazol-1-yl]-4-morpholino-6-(2-pyridyl)furo[3,2-d]pyrimidine] | 2390 nM
Cc1cc(-c2ccn(-c3nc(N4CCOCC4)c4oc(-c5ccccn5)cc4n3)n2)ccn1 [Compound 188, 2-[3-(2-methyl-4-pyridyl)pyrazol-1-yl]-4-morpholino-6-(2-pyridyl)furo[3,2-d]pyrimidine] | 2830 nM
Cn1ccc(-c2cc3nc(-n4cc(-c5ccccc5)cn4)nc(N4CCOCC4)c3o2)n1 [Compound 190, 6-(1-methylpyrazol-3-yl)-4-morpholino-2-(4-phenylpyrazol-1-yl)furo[3,2-d]pyrimidine] | 12.4 nM
Cn1ccc(-c2cc3nc(-n4ccc(-c5ccccc5)n4)nc(N4CCOCC4)c3o2)n1 [Compound 191, 6-(1-methylpyrazol-3-yl)-4-morpholino-2-(3-phenylpyrazol-1-yl)furo[3,2-d]pyrimidine] | 51.9 nM
Cn1ccc(-c2cc3nc(-n4ccc(Br)n4)nc(N4CCOCC4)c3o2)n1 [Compound 195, 2-(3-bromopyrazol-1-yl)-6-(1-methylpyrazol-3-yl)-4-morpholino-furo[3,2-d]pyrimidine] | 907 nM
C=CC(=O)NCCn1nc(-c2cc3nc(-n4cc(-c5cccc(C)c5)cn4)nc(N4CCOCC4)c3o2)cc1C [Compound 196, N-[2-[5-methyl-3-[4-morpholino-2-[4-(m-tolyl)pyrazol-1-yl]furo[3,2-d]pyrimidin-6-yl]pyrazol-1-yl]ethyl]prop-2-enamide] | 0.9 nM
CC(=O)NCCn1nc(-c2cc3nc(-n4cc(-c5cccc(C)c5)cn4)nc(N4CCOCC4)c3o2)cc1C [Compound 197, N-[2-[5-methyl-3-[4-morpholino-2-[4-(m-tolyl)pyrazol-1-yl]furo[3,2-d]pyrimidin-6-yl]pyrazol-1-yl]ethyl]acetamide] | 0.7 nM
Cc1cccc(-c2cnn(-c3nc(N4CCOCC4)c4oc(-c5cc(C)n(CCNC(=O)CCl)n5)cc4n3)c2)c1 [Compound 198, 2-chloro-N-[2-[5-methyl-3-[4-morpholino-2-[4-(m-tolyl)pyrazol-1-yl]furo[3,2-d]pyrimidin-6-yl]pyrazol-1-yl]ethyl]acetamide] | 0.6 nM
Cc1cccc(-c2cnn(-c3nc(N4CCOCC4)c4oc(-c5ccn(C)n5)cc4n3)c2)c1 [Compound 201, 6-(1-methylpyrazol-3-yl)-4-morpholino-2-[4-(m-tolyl)pyrazol-1-yl]furo[3,2-d]pyrimidine] | 0.5 nM
Cc1cccc(-c2ccn(-c3nc(N4CCOCC4)c4oc(-c5nccs5)cc4n3)n2)c1 [Compound 203, 4-morpholino-2-[3-(m-tolyl)pyrazol-1-yl]-6-thiazol-2-yl-furo[3,2-d]pyrimidine] | 1.9 nM
Cn1cc(-c2cc3nc(-n4ccc(-c5ccccc5)n4)nc(N4CCOCC4)c3o2)cn1 [Compound 208, 6-(1-methylpyrazol-4-yl)-4-morpholino-2-(3-phenylpyrazol-1-yl)furo[3,2-d]pyrimidine] | 8.2 nM
Cc1cccc(-c2ccn(-c3nc(N4CCOCC4)c4oc(-c5cc(C)ns5)cc4n3)n2)c1 [Compound 210, 6-(3-methylisothiazol-5-yl)-4-morpholino-2-[3-(m-tolyl)pyrazol-1-yl]furo[3,2-d]pyrimidine] | 3.8 nM
Cc1cccc(-c2ccn(-c3nc(N4CCOCC4)c4oc(-c5cnc(C)[nH]5)cc4n3)n2)c1 [Compound 212, 6-(2-methyl-1H-imidazol-5-yl)-4-morpholino-2-(3-(m-tolyl)-1H-pyrazol-1-yl)furo[3,2-d]pyrimidine] | 2.3 nM

Further molecules by falling IC50, results first:

IC50 | SMILES
3080 nM | Cc1cncc(-c2ccn(-c3nc(N4CCOCC4)c4oc(-c5ccccn5)cc4n3)n2)c1 [Compound 200, 2-[3-(5-methyl-3-pyridyl)pyrazol-1-yl]-4-morpholino-6-(2-pyridyl)furo[3,2-d]pyrimidine]
269 nM | Cn1ccc(-c2cc3nc(-n4cc(Br)cn4)nc(N4CCOCC4)c3o2)n1 [Compound 194, 2-(4-bromopyrazol-1-yl)-6-(1-methylpyrazol-3-yl)-4-morpholino-furo[3,2-d]pyrimidine]
84.2 nM | Cc1cc(-c2oc3c(N4CCOCC4)nc(-n4ccc(-c5ccccc5)n4)nc3c2C)[nH]n1 [Compound 182, 7-methyl-6-(3-methyl-1H-pyrazol-5-yl)-4-morpholino-2-(3-phenylpyrazol-1-yl)furo[3,2-d]pyrimidine]
36.8 nM | COc1cccc(-c2ccn(-c3nc(N4CCOCC4)c4oc(-c5ccccn5)cc4n3)n2)c1 [Compound 199, 2-[3-(3-methoxyphenyl)pyrazol-1-yl]-4-morpholino-6-(2-pyridyl)furo[3,2-d]pyrimidine]
24.6 nM | Cn1ccc(-c2cc3nc(-n4ccc(-c5cccc(Cl)c5)n4)nc(N4CCOCC4)c3o2)n1 [Compound 193, 2-[3-(3-chlorophenyl)pyrazol-1-yl]-6-(1-methylpyrazol-3-yl)-4-morpholino-furo[3,2-d]pyrimidine]
21.7 nM | Cn1ccc(-c2cc3nc(-n4cc(-c5cccc(Cl)c5)cn4)nc(N4CCOCC4)c3o2)n1 [Compound 192, 2-(4-(3-chlorophenyl)-1H-pyrazol-1-yl)-6-(1-methyl-1H-pyrazol-3-yl)-4-morpholinofuro[3,2-d]pyrimidine]
20.8 nM | Cc1cc(-c2cc3nc(-n4ccc(-c5ccccc5)n4)nc(N4CCOCC4)c3o2)sn1 [Compound 211, 6-(3-methylisothiazol-5-yl)-4-morpholino-2-(3-phenylpyrazol-1-yl)furo[3,2-d]pyrimidine]
11.8 nM | Cc1cc(-c2cc3nc(-n4cc(-c5ccccc5)cn4)nc(N4CCOCC4)c3o2)nn1CCN(C)C [Compound 183, N,N-dimethyl-2-[5-methyl-3-[4-morpholino-2-(4-phenylpyrazol-1-yl)furo[3,2-d]pyrimidin-6-yl]pyrazol-1-yl]ethanamine]
10.6 nM | Cc1ncc(-c2cc3nc(-n4ccc(-c5ccccc5)n4)nc(N4CCOCC4)c3o2)[nH]1 [Compound 213, 6-(2-methyl-1H-imidazol-5-yl)-4-morpholino-2-(3-phenylpyrazol-1-yl)furo[3,2-d]pyrimidine]
10.1 nM | Clc1cccc(-c2ccn(-c3nc(N4CCOCC4)c4oc(-c5ccccn5)cc4n3)n2)c1 [Compound 185, 2-[3-(3-chlorophenyl)pyrazol-1-yl]-4-morpholino-6-(2-pyridyl)furo[3,2-d]pyrimidine]
9.8 nM | c1ccc(-c2ccn(-c3nc(N4CCOCC4)c4oc(-c5cn[nH]c5)cc4n3)n2)cc1 [Compound 209, 4-morpholino-2-(3-phenylpyrazol-1-yl)-6-(1H-pyrazol-4-yl)furo[3,2-d]pyrimidine]
7 nM | Cc1cc(-c2cc3nc(-n4ccc(-c5ccccc5)n4)nc(N4CCOCC4)c3o2)on1 [Compound 206, 6-(3-methylisoxazol-5-yl)-4-morpholino-2-(3-phenylpyrazol-1-yl)furo[3,2-d]pyrimidine]
6.6 nM | c1ccc(-c2ccn(-c3nc(N4CCOCC4)c4oc(-c5nccs5)cc4n3)n2)cc1 [Compound 207, 4-morpholino-2-(3-phenylpyrazol-1-yl)-6-thiazol-2-yl-furo[3,2-d]pyrimidine]
2.1 nM | Cc1cccc(-c2ccn(-c3nc(N4CCOCC4)c4oc(-c5cc(C)no5)cc4n3)n2)c1 [Compound 204, 6-(3-methylisoxazol-5-yl)-4-morpholino-2-(3-(m-tolyl)-1H-pyrazol-1-yl)furo[3,2-d]pyrimidine]
1.4 nM | Cc1cccc(-c2cnn(-c3nc(N4CCOCC4)c4oc(-c5cc(C)n(CCN6C(=O)C=CC6=O)n5)cc4n3)c2)c1 [Compound 202, 1-[2-[5-methyl-3-[4-morpholino-2-[4-(m-tolyl)pyrazol-1-yl]furo[3,2-d]pyrimidin-6-yl]pyrazol-1-yl]ethyl]pyrrole-2,5-dione]
1.3 nM | Cc1cccc(-c2ccn(-c3nc(N4CCOCC4)c4oc(-c5cnn(C)c5)cc4n3)n2)c1 [Compound 205, 6-(1-methylpyrazol-4-yl)-4-morpholino-2-[3-(m-tolyl)pyrazol-1-yl]furo[3,2-d]pyrimidine]
0.8 nM | Cc1cccc(-c2ccn(-c3nc(N4CCOCC4)c4oc(-c5ccn(C)n5)cc4n3)n2)c1 [Compound 189, 6-(1-methylpyrazol-3-yl)-4-morpholino-2-[3-(m-tolyl)pyrazol-1-yl]furo[3,2-d]pyrimidine]
